Laboratory results from PubChem BioAssay AID2060346 (Molecular Pharmacology Branch, DTP, NCI, 2025).

Test system: CN0375-F725-PDC multi-cell spheroids, viability
Assay: Anticancer human tumor CN0375-F725-PDC patient-derived colon carcinoma cell line growth inhibition [TAK]
Settings: for IC50: curve of first compound; for viability, T/C: stronger effect = lower value
Source text: Combinatorial screen of targeted agents with TAK-243 and ipatasertib in multi-cell type tumor spheroids
A high-throughput screen of multi-cell type tumor spheroids was designed to identify active combinations of targeted small molecules and TAK-243 or ipatasertib. Complex spheroids include a stromal component modeled by human endothelial cells (HUVEC) and fibroblasts modeled by human mesenchymal stem cells (MSCs). The concentration ranges selected for each drug and investigational agent were based upon clinically achievable concentrations if the clinical Cmax of the agent was known.
Compounds. The drugs and investigational agents: TAK-243 (785004), ipatasertib (767898), everolimus (733504), selumetinib (741078), bortezomib (756655), trametinib (758246), ixazomib (758254), vemurafenib (761431), dabrafenib (764134), sapanisertib (764658), alpelisib (765974), and copanlisib (816437), were obtained from the National Cancer Institute (NCI) Developmental Therapeutics Program Chemical Repository. The FDA-approved anticancer drug set is available from the NCI Developmental Therapeutics Program. […] The stock solutions were prepared in dimethyl sulfoxide (DMSO, Sigma-Aldrich, St. Louis, MO, cat. D2650) at 800-fold the tested concentration and stored at -70 degrees C prior to their use. All drugs and investigational agents were tested over a range starting from a high concentration at or near the clinical Cmax and decreasing in half-log increments. If the clinical Cmax for an agent had not been determined, the highest concentration tested was 10 microM.
NCI60 Cell Culture. NCI60 cell lines were obtained from the NCI Developmental Therapeutics Program Tumor Repository. For each lot of cells, the Repository performed Applied Biosystems AmpFLSTR Identifiler testing with PCR amplification to confirm consistency with the published Identifier STR profile for each cell line. Cells were kept in continuous culture for no more than 20 passages. The optimal seeding densities for each of the cell lines at each time point assessed were determined prior to performing the concentration response studies. Briefly, the NCI60 human tumor lines were grown as monolayers in RPMI 1640 medium supplemented with 10% FBS and 2 mmol/L L-glutamine.
An additional 2 lines were from the NCI60 cell line panel including melanomas, MALME-3M and SK-MEL-2. Pooled donor human umbilical vein endothelial cells (HUVEC, Lonza, cat. CC-2519) and human mesenchymal stem cells (hMSC, Lonza, cat. PT-2501) were purchased from Lonza (Walkersville, MD).
PDMR cell lines were grown in complete medium (DC medium): Dulbecco's modified Eagle's medium (DMEM)/F12 supplemented with 5% fetal bovine serum (FBS), 2 mM L-glutamine, 100 U/mL penicillin and 100 µg/ml streptomycin, 0.4 µg/ml hydrocortisone, 10 ng/ml epidermal growth factor (EGF) recombinant human protein, 24 µg/mL adenine, and 0.1 mg/mL primocin. During culture from frozen stock vials, PDMR cells were cultured in the same medium containing 10 µM Y-27632 (see Table 3). The PDCs were cultured in complete DMEM/F12 media without 10 microM Y-27632 dihydrochloride for at least two passages prior to the screen. The pooled donor HUVEC and hMSC were cultured in endothelial cell growth medium 2 (PromoCell, Heidelberg, Germany, cat. C-22011) and mesenchymal stem cell growth medium 2 (PromoCell, cat. C-28009), respectively. For all experiments, HUVEC and hMSC were used at passages </=5.
For the pre-screen, cell seeding densities were determined from a titration spanning the range from 5,000 to 313 cells per well. The mct-spheroids including 60% malignant cells, 25% HUVEC and 15% MSC dispensed as a mixture into U-bottom Ultra-Low Attachment 384-well plates (Corning, NY)
High-throughput Drug Combination Screening.
Prior to their inoculation into 384-well plates, malignant cells, HUVEC, and hMSC were removed from T flasks using TrypLE express (Thermo Fisher Scientific, cat. 12605036) and harvested by centrifugation for 5 min at 233 x g. […]
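Note: spheroids exposed to drugs for seven days.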
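Throughout, for viability, T/C: 100% = DMSO vehicle control wells.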

COC1CC2CCC(C)C(O)(O2)C(=O)C(=O)N2CCCCC2C(=O)OC(C(C)CC2CCC(OCCO)C(OC)C2)CC(=O)C(C)C=C(C)C(O)C(OC)C(=O)C(C)CC(C)C=CC=CC=C1C (stereo not given) + CC(C)NCC(C(=O)N1CCN(c2ncnc3c2C(C)CC3O)CC1)c1ccc(Cl)cc1
IC50 (second compound 0.3 µM): > 100 nM
IC50 (second compound 0.949 µM): > 100 nM
IC50 (second compound 3 µM): > 100 nM
IC50 (second compound 9.49 µM): > 100 nM
IC50 (second compound 30 µM): > 100 nM
viability, T/C (second compound 0.3 µM, first compound 0.000316 µM): 97.5%
viability, T/C (second compound 0.3 µM, first compound 0.001 µM): 95.1%
viability, T/C (second compound 0.3 µM, first compound 0.00316 µM): 89.1%
viability, T/C (second compound 0.3 µM, first compound 0.01 µM): 82.5%
viability, T/C (second compound 0.3 µM, first compound 0.0316 µM): 81.1%
viability, T/C (second compound 0.3 µM, first compound 0.1 µM): 81.1%
viability, T/C (second compound 0.949 µM, first compound 0.000316 µM): 99%
viability, T/C (second compound 0.949 µM, first compound 0.001 µM): 94.8%
viability, T/C (second compound 0.949 µM, first compound 0.00316 µM): 84.5%
viability, T/C (second compound 0.949 µM, first compound 0.01 µM): 81.1%
viability, T/C (second compound 0.949 µM, first compound 0.0316 µM): 78.3%
viability, T/C (second compound 0.949 µM, first compound 0.1 µM): 78.2%
viability, T/C (second compound 3 µM, first compound 0.000316 µM): 88.7%
viability, T/C (second compound 3 µM, first compound 0.001 µM): 83.9%
viability, T/C (second compound 3 µM, first compound 0.00316 µM): 83.9%
viability, T/C (second compound 3 µM, first compound 0.01 µM): 77.8%
viability, T/C (second compound 3 µM, first compound 0.0316 µM): 77.4%
viability, T/C (second compound 3 µM, first compound 0.1 µM): 75.9%
viability, T/C (second compound 9.49 µM, first compound 0.000316 µM): 83.3%
viability, T/C (second compound 9.49 µM, first compound 0.001 µM): 84.1%
viability, T/C (second compound 9.49 µM, first compound 0.00316 µM): 80.7%
viability, T/C (second compound 9.49 µM, first compound 0.01 µM): 71.1%
viability, T/C (second compound 9.49 µM, first compound 0.0316 µM): 76%
viability, T/C (second compound 9.49 µM, first compound 0.1 µM): 71%
viability, T/C (second compound 30 µM, first compound 0.000316 µM): 71.3%
viability, T/C (second compound 30 µM, first compound 0.001 µM): 76.8%
viability, T/C (second compound 30 µM, first compound 0.00316 µM): 72.2%
viability, T/C (second compound 30 µM, first compound 0.01 µM): 63.5%
viability, T/C (second compound 30 µM, first compound 0.0316 µM): 75.8%
viability, T/C (second compound 30 µM, first compound 0.1 µM): 68.5%

Cn1cnc2c(F)c(Nc3ccc(Br)cc3Cl)c(C(=O)NOCCO)cc21 + CC(C)NCC(C(=O)N1CCN(c2ncnc3c2C(C)CC3O)CC1)c1ccc(Cl)cc1
IC50 (second compound 0.3 µM): 260 nM
IC50 (second compound 0.949 µM): 222 nM
IC50 (second compound 3 µM): 161 nM
IC50 (second compound 9.49 µM): 178 nM
IC50 (second compound 30 µM): 71.2 nM
viability, T/C (second compound 0.3 µM, first compound 0.00949 µM): 91.4%
viability, T/C (second compound 0.3 µM, first compound 0.03 µM): 75.3%
viability, T/C (second compound 0.3 µM, first compound 0.0949 µM): 58.8%
viability, T/C (second compound 0.3 µM, first compound 0.3 µM): 50%
viability, T/C (second compound 0.3 µM, first compound 0.949 µM): 38.6%
viability, T/C (second compound 0.3 µM, first compound 3 µM): 30.6%
viability, T/C (second compound 0.949 µM, first compound 0.00949 µM): 83.5%
viability, T/C (second compound 0.949 µM, first compound 0.03 µM): 78.6%
viability, T/C (second compound 0.949 µM, first compound 0.0949 µM): 57.6%
viability, T/C (second compound 0.949 µM, first compound 0.3 µM): 48.3%
viability, T/C (second compound 0.949 µM, first compound 0.949 µM): 36%
viability, T/C (second compound 0.949 µM, first compound 3 µM): 31.1%
viability, T/C (second compound 3 µM, first compound 0.00949 µM): 79.6%
viability, T/C (second compound 3 µM, first compound 0.03 µM): 72%
viability, T/C (second compound 3 µM, first compound 0.0949 µM): 56.9%
viability, T/C (second compound 3 µM, first compound 0.3 µM): 41.4%
viability, T/C (second compound 3 µM, first compound 0.949 µM): 34.2%
viability, T/C (second compound 3 µM, first compound 3 µM): 29.3%
viability, T/C (second compound 9.49 µM, first compound 0.00949 µM): 77.8%
viability, T/C (second compound 9.49 µM, first compound 0.03 µM): 69.4%
viability, T/C (second compound 9.49 µM, first compound 0.0949 µM): 58.2%
viability, T/C (second compound 9.49 µM, first compound 0.3 µM): 42.7%
viability, T/C (second compound 9.49 µM, first compound 0.949 µM): 32.7%
viability, T/C (second compound 9.49 µM, first compound 3 µM): 23.2%
viability, T/C (second compound 30 µM, first compound 0.00949 µM): 66%
viability, T/C (second compound 30 µM, first compound 0.03 µM): 64.2%
viability, T/C (second compound 30 µM, first compound 0.0949 µM): 43.5%
viability, T/C (second compound 30 µM, first compound 0.3 µM): 31.6%
viability, T/C (second compound 30 µM, first compound 0.949 µM): 22.1%
viability, T/C (second compound 30 µM, first compound 3 µM): 16.1%
